Assays:
[1] = biological target: Recombinant human DDR2 (aa427-855 containing a GST tag) (Homo sapiens (Human), UniProt Q16832); assay: LanthaScreen Eu Kinase Binding Assay DDR2; details: Kinase Tracer 178 10 nM, at least two independent replicates; for IC50: read-out: DDR2 pIC50 (converted)
Summary of the method: (§1)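 DDR1 (2.5 nM) or DDR2 (1.75 nM) was preincubated with compound 30 min at RT in 50 mM HEPES pH 7.3, 10 mM MgCl2, 1 mM EGTA, 0.01% Tween. Eu-anti-GST and Tracer 178 were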

[2] = biological target: Recombinant human DDR1 (aa440-876 containing a GST tag) (Homo sapiens (Human), UniProt Q08345); assay: LanthaScreen Eu Kinase Binding Assay DDR1; details: Kinase Tracer 178 5 nM, at least two independent replicates; for IC50: read-out: DDR1 pIC50 (converted)
Summary of the method: as §1

Recombinant human DDR2 (aa427-855 containing a GST tag), sequence (Q16832 427-855): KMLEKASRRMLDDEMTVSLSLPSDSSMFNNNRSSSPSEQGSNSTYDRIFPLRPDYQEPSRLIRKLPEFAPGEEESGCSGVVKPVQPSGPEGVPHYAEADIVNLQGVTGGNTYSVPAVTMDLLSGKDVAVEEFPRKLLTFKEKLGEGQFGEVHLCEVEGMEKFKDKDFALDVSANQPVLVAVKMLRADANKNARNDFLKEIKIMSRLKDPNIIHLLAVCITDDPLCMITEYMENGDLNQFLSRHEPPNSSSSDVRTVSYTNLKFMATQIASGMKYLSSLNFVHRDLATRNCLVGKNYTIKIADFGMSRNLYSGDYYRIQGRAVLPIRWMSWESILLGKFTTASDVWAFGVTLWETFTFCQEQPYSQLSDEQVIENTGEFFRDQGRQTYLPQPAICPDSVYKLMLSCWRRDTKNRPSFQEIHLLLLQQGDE
Recombinant human DDR1 (aa440-876 containing a GST tag), sequence (Q08345 other isoform, or with tags, fused parts or gaps): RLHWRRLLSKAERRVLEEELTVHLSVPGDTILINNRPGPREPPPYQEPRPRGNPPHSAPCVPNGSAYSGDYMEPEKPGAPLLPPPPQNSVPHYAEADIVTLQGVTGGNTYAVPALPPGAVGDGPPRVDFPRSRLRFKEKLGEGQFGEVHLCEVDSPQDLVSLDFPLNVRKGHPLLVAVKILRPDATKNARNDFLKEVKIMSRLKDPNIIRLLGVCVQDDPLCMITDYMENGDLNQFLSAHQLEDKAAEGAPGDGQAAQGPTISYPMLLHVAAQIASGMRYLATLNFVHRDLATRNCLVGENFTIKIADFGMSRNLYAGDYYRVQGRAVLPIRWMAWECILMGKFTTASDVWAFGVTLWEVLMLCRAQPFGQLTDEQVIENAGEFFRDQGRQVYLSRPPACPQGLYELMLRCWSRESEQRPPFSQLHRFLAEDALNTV

| SMILES | IC50 [1] [nM] | DDR1 pIC50 [2] | DDR2 pIC50 [1] | IC50 [2] [nM] |
| --- | --- | --- | --- | --- |
| Cc1cccc2c1n(-c1ccc(-c3cncc4c3cnn4C)nc1)c(=O)n2CC(=O)N[C@@H](C)C(F)(F)F [Example 52, 2-[4-methyl-3-[6-(1-methylpyrazolo[3,4-c]pyridin-4-yl)-3-pyridyl]-2-oxo-benzimidazol-1-yl]-N-[(1S)-2,2,2-trifluoro-1-methyl-ethyl]acetamide] | 10 to 100 | A (pIC50>8) |  |  |
| Cc1cccc2c1n(-c1cnc(-c3cncc4c3cnn4C)cn1)c(=O)n2CC(=O)N[C@H](C)C(F)(F)F [Example 48, 2-[4-methyl-3-[5-(1-methylpyrazolo[3,4-c]pyridin-4-yl)pyrazin-2-yl]-2-oxo-benzimidazol-1-yl]-N-[(1R)-2,2,2-trifluoro-1-methyl-ethyl]acetamide] |  |  | D (pIC50≤6) | 10 to 100 |
| Cc1cccc2c1n(-c1ccc(-c3cncc4c3cnn4C)cc1)c(=O)n2CC(=O)N[C@@H](C)C(F)(F)F [Example 7, 2-[4-methyl-3-[4-(1-methylpyrazolo[3,4-c]pyridin-4-yl)phenyl]-2-oxobenzimidazol-1-yl]-N-[(1S)-2,2,2-trifluoro-1-methylethyl]acetamide] |  | A (pIC50>8) | A (pIC50>8) |  |
| Cc1cccc2c1n(-c1cnc(-c3cncc4c3cnn4C)cn1)c(=O)n2CC(=O)N[C@@H](C)C(F)(F)F [Example 49, 2-[4-methyl-3-[5-(1-methylpyrazolo[3,4-c]pyridin-4-yl)pyrazin-2-yl]-2-oxo-benzimidazol-1-yl]-N-[(1S)-2,2,2-trifluoro-1-methyl-ethyl]acetamide] | 10 to 100 | A (pIC50>8) |  |  |
| Cn1ncc2c(-c3ccc(-n4c(=O)n(CC(=O)N5CCCC[C@@H]5C(F)(F)F)c5ccccc54)cc3)cncc21 [Example 30, 1-[4-(1-methylpyrazolo[3,4-c]pyridin-4-yl)phenyl]-3-[2-oxo-2-[(2R)-2-(trifluoromethyl)-1-piperidyl]ethyl]benzimidazol-2-one] |  |  | D (pIC50≤6) | 100 to 1000 |
| Cc1cccc2c1n(-c1ccc(-c3cncc4c3cnn4C)nc1)c(=O)n2CC(=O)NCC(F)(F)F [Example 50, 2-[4-methyl-3-[6-(1-methylpyrazolo[3,4-c]pyridin-4-yl)-3-pyridyl]-2-oxo-benzimidazol-1-yl]-N-(2,2,2-trifluoroethyl)acetamide] | 10 to 100 | A (pIC50>8) |  |  |
| Cn1ncc2c(-c3ccc(-n4c(=O)n(CC(=O)N5CCC[C@H]5C(F)F)c5ccccc54)cc3)cncc21 [Example 25, 1-[2-[(2S)-2-(difluoromethyl)pyrrolidin-1-yl]-2-oxo-ethyl]-3-[4-(1-methylpyrazolo[3,4-c]pyridin-4-yl)phenyl]benzimidazol-2-one] | 10 to 100 | A (pIC50>8) |  |  |
| Cc1cccc2c1n(-c1ccc(-c3cncc4c3cnn4C)cc1)c(=O)n2CC(=O)N1CCO[C@@H](C(F)(F)F)C1 [Example 10, 4-methyl-3-[4-(1-methypyrazolo[3,4-c]pyridin-4-yl)phenyl]-1-[2-oxo-2-[(2R)-2-(trifluoromethyl)morpholin-4-yl]ethyl]benzimidazol-2-one] | 10 to 100 | A (pIC50>8) |  |  |

Now from value to compound:

| IC50 [1] [nM] | DDR1 pIC50 [2] | DDR2 pIC50 [1] | IC50 [2] [nM] | SMILES |
| --- | --- | --- | --- | --- |
|  | D (pIC50≤6) | D (pIC50≤6) |  | Cn1ncc2c(-c3ccc(-n4c(=O)n(CC(=O)NCC(F)(F)F)c5cccnc54)cc3)cncc21 [Example 76, 2-[3-[4-(1-methylpyrazolo[3,4-c]pyridin-4-yl)phenyl]-2-oxo-imidazo[4,5-b]pyridin-1-yl]-N-(2,2,2-trifluoroethyl)acetamide] |
| 100 to 1000 | A (pIC50>8) |  |  | Cc1nc(-c2cncc3c2cnn3C)ccc1-n1c(=O)n(CC(=O)NCC(F)(F)F)c2cccc(C)c21 [Example 95, 2-[4-methyl-3-[2-methyl-6-(1-methylpyrazolo[3,4-c]pyridin-4-yl)-3-pyridyl]-2-oxo-benzimidazol-1-yl]-N-(2,2,2-trifluoroethyl)acetamide] |
|  | C (7≥pIC50>6) | D (pIC50≤6) |  | Cn1ncc2c(-c3ccc(-n4c(=O)n(CC(=O)NCC(F)(F)F)c5ccccc54)cn3)cncc21 [Example 91, 2-[3-[6-(1-methylpyrazolo[3,4-c]pyridin-4-yl)-3-pyridyl]-2-oxo-benzimidazol-1-yl]-N-(2,2,2-trifluoroethyl)acetamide] |
| 10 to 100 | A (pIC50>8) |  |  | Cc1cccc2c1n(-c1ccc(-c3cncc4c3cnn4C)cn1)c(=O)n2CC(=O)N1CCC[C@H]1C(F)(F)F [Example 59, 4-methyl-3-[5-(1-methylpyrazolo[3,4-c]pyridin-4-yl)-2-pyridyl]-1-[2-oxo-2-[(2S)-2-(trifluoromethyl)pyrrolidin-1-yl]ethyl]benzimidazol-2-one] |
|  |  | D (pIC50≤6) | 100 to 1000 | Cc1cc(-c2cncc3c2cnn3C)cnc1-n1c(=O)n(CC(=O)N[C@H](C)C(F)(F)F)c2cccc(C)c21 [Example 111] |
| 10 to 100 | A (pIC50>8) |  |  | Cc1cc(-c2cncc3c2cnn3C)ccc1-n1c(=O)n(CC(=O)N[C@@H](C)C(F)(F)F)c2cccc(Cl)c21 [Example 84, 2-[4-chloro-3-[2-methyl-4-(1-methylpyrazolo[3,4-c]pyridin-4-yl)phenyl]-2-oxo-benzimidazol-1-yl]-N-[(1S)-2,2,2-trifluoro-1-methyl-ethyl]acetamide] |
|  | D (pIC50≤6) | D (pIC50≤6) |  | Cn1ncc2c(-c3ccc(-n4c(=O)n(CC(=O)NCC(F)(F)F)c5ccncc54)cc3)cncc21 [Example 77, 2-[3-[4-(1-methylpyrazolo[3,4-c]pyridin-4-yl)phenyl]-2-oxo-imidazo[4,5-c]pyridin-1-yl]-N-(2,2,2-trifluoroethyl)acetamide] |
|  |  | D (pIC50≤6) | 100 to 1000 | COc1cc(-c2cncc3c2cnn3C)ccc1-n1c(=O)n(CC(=O)NCC(F)(F)F)c2ccccc21 [Example 88, 2-[3-[2-methoxy-4-(1-methylpyrazolo[3,4-c]pyridin-4-yl)phenyl]-2-oxo-benzimidazol-1-yl]-N-(2,2,2-trifluoroethyl)acetamide] |
|  |  | D (pIC50≤6) | 10 to 100 | Cc1nc(-c2cncc3[nH]nc(C)c23)ccc1-n1c(=O)n(CC(=O)NCC(F)(F)F)c2cccc(C)c21 [Example 103, 2-[4-methyl-3-[2-methyl-6-(3-methyl-1H-pyrazolo[3,4-c]pyridin-4-yl)-3-pyridyl]-2-oxo-benzimidazol-1-yl]-N-(2,2,2-trifluoroethyl)acetamide] |
|  |  | D (pIC50≤6) | 100 to 1000 | Cc1nc(-n2c(=O)n(CC(=O)N[C@@H](C)C(F)(F)F)c3cccc(C)c32)cnc1-c1cncc2c1cnn2C [Example 101, 2-[4-methyl-3-[6-methyl-5-(1-methylpyrazolo[3,4-c]pyridin-4-yl)pyrazin-2-yl]-2-oxo-benzimidazol-1-yl]-N-[(1S)-2,2,2-trifluoro-1-methyl-ethyl]acetamide] |
|  | D (pIC50≤6) | D (pIC50≤6) |  | COc1cccc2c1n(-c1ccc(-c3cncc4c3cnn4C)cc1C)c(=O)n2CC(=O)NCC(F)(F)F [Example 81, 2-[4-methoxy-3-[2-methyl-4-(1-methylpyrazolo[3,4-c]pyridin-4-yl)phenyl]-2-oxo-benzimidazol-1-yl]-N-(2,2,2-trifluoroethyl)acetamide] |

Source: patent US20260055102A1 (Redx Pharma Limited, priority 2022, published 2026)
